# Laboratory results published in article PMC11003477, “Fluorine and chlorine substituted adamantyl-urea as molecular tools for inhibition of human soluble epoxide hydrolase with picomolar efficacy” (Journal of Enzyme Inhibition and Medicinal Chemistry, 2023).
# Where two headings read alike, the source gives them in different places.
# Columns and labels:
# [1] = Aqueous solubility by turbidimetric assay; type: physicochemical; conditions: aqueous buffer, kinetic from dmso stock, sodium phosphate buffer (pH 7.4, 0.1 M) containing 1% of DMSO, read-out: Saq (aqueous solubility)
# Method: Solubilities were measured in sodium phosphate buffer (pH 7.4, 0.1 M) containing 1% of DMSO by turbidimetric assay.
# [2] = target: T1, human sEH (Homo sapiens, UniProt P34913); assay: Human sEH inhibition, kinetic fluorescent assay (CMNPC assay); type: biochemical
# T1 construct: made in house; host or cells: insect cells with baculovirus (given both as High Five cells and as Spodoptera frugiperda 21)
# T1 sequence (P34913 1-555): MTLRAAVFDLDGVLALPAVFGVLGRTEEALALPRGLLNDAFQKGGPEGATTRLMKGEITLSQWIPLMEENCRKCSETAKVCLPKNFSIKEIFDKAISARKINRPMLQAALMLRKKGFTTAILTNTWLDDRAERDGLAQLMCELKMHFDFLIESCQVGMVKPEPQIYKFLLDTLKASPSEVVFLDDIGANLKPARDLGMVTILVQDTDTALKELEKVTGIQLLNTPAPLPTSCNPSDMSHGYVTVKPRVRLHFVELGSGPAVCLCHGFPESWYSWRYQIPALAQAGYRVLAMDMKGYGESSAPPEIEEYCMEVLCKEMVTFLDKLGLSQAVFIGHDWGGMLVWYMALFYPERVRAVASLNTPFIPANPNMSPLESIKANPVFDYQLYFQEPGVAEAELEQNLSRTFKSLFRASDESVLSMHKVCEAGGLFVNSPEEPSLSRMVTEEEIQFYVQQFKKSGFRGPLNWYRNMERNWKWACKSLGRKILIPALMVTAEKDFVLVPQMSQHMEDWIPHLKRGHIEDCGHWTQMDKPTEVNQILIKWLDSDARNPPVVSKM
# Method: Recombinant human and recombinant rat sEH were produced in insect High Five cells using recombinant baculovirus expression vectors, and purified by affinity chromatography as reported previously.[31]^,[32] […] Human sEH was obtained by expressing cDNA in the baculovirus system in the cell line Spodoptera frugiperda 21.
# Determination of inhibitory potency (IC50) by fluorescent assay (CMNPC assay)[27]
# The enzyme (ca. 1 nM human sEH) was incubated at 30 °C with inhibitors ([I]final = 0.4–100,000 nM) for 5 min in 100 mM sodium phosphate buffer (200 μL, pH 7.4) containing 0.1 mg mL^−1 of BSA and 1% of DMSO. The substrate (cyano(2-methoxynaphthalen-6-yl)methyl trans-(3-phenyloxyran-2-yl)methylcarbonate, CMNPC) was then added ([S]final = 5 μM). The activity was assessed by measuring the appearance of the fluorescent 6-methoxynaphthaldehyde product ([…]) at 30 °C during a 10 min incubation (Spectramax M2; Molecular Device, Inc., Sunnyvale, CA).
# [3] = target: T1, human sEH; conditions: cited from earlier work
# [4] = CMNPC fluorescent assay, means of three independent experiments, measurement limit 0.04 nM, read-out: IC50
solubility [1] [µM],"IC50 [2, 4] [pM]",melting point [°C],"IC50 ([2]; value below the accuracy limit of the assay (0.04 nM), read-out: IC50 as measured, before reduction to the measurement limit) [pM]",SMILES,IC50 ([3]; chlorine derivative of t-AUCB without methylene bridge) [pM],IC50 ([3]; earlier version of the assay with a measurement limit of 0.4 nM) [pM]
60 ± 10,100,187 to 188,–,O=C(NCCCCCCCCNC(=O)NCC12CC3CC(CC(Cl)(C3)C1)C2)NCC12CC3CC(CC(Cl)(C3)C1)C2 [Compound 12g],–,–
200 ± 20,< 40,77 to 78,–,O=C(NCCCCCCCNC(=O)NCC12CC3CC(CC(F)(C3)C1)C2)NCC12CC3CC(CC(F)(C3)C1)C2 [Compound 11f],–,–
–,–,–,–,O=C(NC12CC3CC(CC(Cl)(C3)C1)C2)N[C@H]1CC[C@H](Oc2ccc(C(=O)O)cc2)CC1 [Compound 1c],1400,–
150 ± 20,9200,78 to 79,–,O=C(NCCNC(=O)NCC12CC3CC(CC(F)(C3)C1)C2)NCC12CC3CC(CC(F)(C3)C1)C2 [Compound 11a],–,–
140 ± 20,400,75 to 76,–,O=C(NCCCCCNC(=O)NCC12CC3CC(CC(F)(C3)C1)C2)NCC12CC3CC(CC(F)(C3)C1)C2 [Compound 11d],–,–
60 ± 10,< 40,213 to 214,–,O=C(NCCCCNC(=O)NCC12CC3CC(CC(Cl)(C3)C1)C2)NCC12CC3CC(CC(Cl)(C3)C1)C2 [Compound 12c],–,–
80 ± 10,< 40,164 to 165,–,O=C(NCCCCCCCNC(=O)NCC12CC3CC(CC(Cl)(C3)C1)C2)NCC12CC3CC(CC(Cl)(C3)C1)C2 [Compound 12f],–,–
150 ± 20,50,76 to 77,–,O=C(NCCCCCCCCCCNC(=O)NCC12CC3CC(CC(F)(C3)C1)C2)NCC12CC3CC(CC(F)(C3)C1)C2 [Compound 11i],–,–
150 ± 20,1800,87 to 88,–,O=C(NCCCNC(=O)NCC12CC3CC(CC(F)(C3)C1)C2)NCC12CC3CC(CC(F)(C3)C1)C2 [Compound 11b],–,–
150 ± 20,600,85 to 86,–,O=C(NCC12CC3CC(CC(F)(C3)C1)C2)N[C@H]1CC[C@H](Oc2ccc(C(=O)O)cc2)CC1 [Compound 9],–,–
150 ± 20,< 40,82 to 83,–,O=C(NCCCCCCNC(=O)NCC12CC3CC(CC(F)(C3)C1)C2)NCC12CC3CC(CC(F)(C3)C1)C2 [Compound 11e],–,–
200 ± 20,50,73 to 74,–,O=C(NCCCCCCCCCNC(=O)NCC12CC3CC(CC(F)(C3)C1)C2)NCC12CC3CC(CC(F)(C3)C1)C2 [Compound 11h],–,–
180 ± 20,< 40,95 to 96,–,O=C(NCCCCCCCCNC(=O)NCC12CC3CC(CC(F)(C3)C1)C2)NCC12CC3CC(CC(F)(C3)C1)C2 [Compound 11g],–,–
80 ± 10,< 40,194 to 195,–,O=C(NCCCNC(=O)NCC12CC3CC(CC(Cl)(C3)C1)C2)NCC12CC3CC(CC(Cl)(C3)C1)C2 [Compound 12b],–,–
180 ± 20,500,142 to 143,–,O=C(NCCCCNC(=O)NCC12CC3CC(CC(F)(C3)C1)C2)NCC12CC3CC(CC(F)(C3)C1)C2 [Compound 11c],–,–
160 ± 20,< 40,192 to 193,–,O=C(NCC12CC3CC(CC(Cl)(C3)C1)C2)N[C@H]1CC[C@H](Oc2ccc(C(=O)O)cc2)CC1 [Compound 10],–,–
60 ± 10,< 40,189 to 190,–,O=C(NCCCCCCCCCCNC(=O)NCC12CC3CC(CC(Cl)(C3)C1)C2)NCC12CC3CC(CC(Cl)(C3)C1)C2 [Compound 12i],–,–
60 ± 10,< 40,148 to 149,–,O=C(NCCCCCCNC(=O)NCC12CC3CC(CC(Cl)(C3)C1)C2)NCC12CC3CC(CC(Cl)(C3)C1)C2 [Compound 12e],–,–
60 ± 10,5100,222 to 223,–,O=C(NCCNC(=O)NCC12CC3CC(CC(Cl)(C3)C1)C2)NCC12CC3CC(CC(Cl)(C3)C1)C2 [Compound 12a],–,–
70 ± 10,< 40,157 to 158,2,O=C(NCCCCCNC(=O)NCC12CC3CC(CC(Cl)(C3)C1)C2)NCC12CC3CC(CC(Cl)(C3)C1)C2 [Compound 12d],–,–
65 ± 5,400,–,–,"O=C(NCCCCCCNC(=O)NCC12CC3CC(CC(C3)C1)C2)NCC12CC3CC(CC(C3)C1)C2 [DAMH, 1,1'-(hexane-1,6-diyl)bis(3-(adamantan-1-ylmethyl)urea), reference compound]",–,1000
